One experiment addresses CLK2 (Homo sapiens, UniProt P49760). Put plainly: Off-target kinase panel, ZLYTE: CLK2. Format: biochemical. As to conditions: read-out: Estimated IC50 (uM) CLK2. An excerpt:
(§1) The activity data was obtained in a panel of 265 and 264 for compounds 1-1 and CC-1, respectively, using the ZLYTE and ADAPTA assay methods indicated in the table below.
(§2) The ZLYTE biochemical assay employs a fluorescence-based, coupled-enzyme format and is based on the differential sensitivity of phosphorylated and non-phosphorylated peptides to proteolytic cleavage. The peptide substrate is labeled with two fluorophores—one at each end—that make up a Fluorescence Resonance Energy Transfer (FRET) pair.
(§3) In the primary reaction, the kinase transfers the gamma-phosphate of ATP to a single tyrosine, serine or threonine residue in a synthetic FRET-peptide. In the secondary reaction, a site-specific protease recognizes and cleaves non-phosphorylated FRET-peptides. Phosphorylation of FRET-peptides suppresses cleavage by the Development Reagent. […] A ratiometric method, which calculates the ratio (the Emission Ratio) of donor emission to acceptor emission after excitation of the donor fluorophore at 400 nm, is used to quantitate reaction progress, as shown in the equation below. […]
(§4) Both cleaved and uncleaved FRET-peptides contribute to the fluorescence signals and therefore to the Emission Ratio. The extent of phosphorylation of the FRET-peptide can be calculated from the Emission Ratio. […]
(§5) 10. Read on fluorescence plate reader and analyze the data.

For the next experiment, the target named is TYK2 (Homo sapiens, UniProt P29597). Put plainly: Off-target kinase panel, ZLYTE: TYK2. Format: biochemical. Particulars: read-out: Estimated IC50 (uM) TYK2.
Sequence of TYK2 (P29597 whole entry): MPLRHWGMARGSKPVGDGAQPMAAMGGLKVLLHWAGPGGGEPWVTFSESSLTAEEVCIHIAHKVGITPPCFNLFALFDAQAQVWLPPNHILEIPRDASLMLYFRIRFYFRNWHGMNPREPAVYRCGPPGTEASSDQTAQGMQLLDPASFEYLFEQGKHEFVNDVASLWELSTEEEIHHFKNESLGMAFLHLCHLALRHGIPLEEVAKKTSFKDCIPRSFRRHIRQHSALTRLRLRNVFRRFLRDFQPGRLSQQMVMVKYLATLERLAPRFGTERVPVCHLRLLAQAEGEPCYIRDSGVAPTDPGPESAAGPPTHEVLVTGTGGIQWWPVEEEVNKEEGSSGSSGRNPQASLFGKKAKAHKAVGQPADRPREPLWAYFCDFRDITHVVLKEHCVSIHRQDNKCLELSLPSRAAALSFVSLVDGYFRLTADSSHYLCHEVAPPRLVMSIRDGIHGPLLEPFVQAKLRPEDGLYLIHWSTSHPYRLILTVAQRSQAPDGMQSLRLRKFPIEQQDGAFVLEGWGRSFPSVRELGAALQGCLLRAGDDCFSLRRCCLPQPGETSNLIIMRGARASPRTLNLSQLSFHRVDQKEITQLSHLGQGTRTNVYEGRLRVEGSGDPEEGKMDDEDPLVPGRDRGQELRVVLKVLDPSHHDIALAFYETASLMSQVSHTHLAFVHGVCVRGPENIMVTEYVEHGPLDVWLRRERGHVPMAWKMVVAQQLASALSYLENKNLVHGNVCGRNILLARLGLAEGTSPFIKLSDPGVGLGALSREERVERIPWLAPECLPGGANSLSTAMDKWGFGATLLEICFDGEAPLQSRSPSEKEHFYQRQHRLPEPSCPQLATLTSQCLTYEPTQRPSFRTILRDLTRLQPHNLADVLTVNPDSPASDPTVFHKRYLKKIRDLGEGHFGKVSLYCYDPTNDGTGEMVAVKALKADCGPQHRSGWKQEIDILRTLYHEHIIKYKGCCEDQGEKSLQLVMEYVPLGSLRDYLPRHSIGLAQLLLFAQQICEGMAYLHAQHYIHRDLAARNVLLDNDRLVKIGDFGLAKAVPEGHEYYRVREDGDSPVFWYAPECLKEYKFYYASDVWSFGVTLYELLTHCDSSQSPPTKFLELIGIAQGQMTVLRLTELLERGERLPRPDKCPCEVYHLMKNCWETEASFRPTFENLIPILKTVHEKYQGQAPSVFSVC
From the text: as §1, §2, §3, §4, §5

For the next experiment, the target named is IDO1 (Homo sapiens, UniProt P14902). Put plainly: IDO1 Human Whole Blood Assay (D). Particulars: LPS and IFNγ, 18 h, read-out: IDO WB IC50, nM (D). Format: cell-based. Also noted: from tissue; host or cells: human whole blood from healthy donors, stimulated with LPS and IFNγ. The procedure:
Compounds to be tested were serially diluted in ten 3-fold steps in DMSO starting from 10 mM. 3 μL of compound dilutions or DMSO alone were then dispensed from the dilution plate into a polypropylene 96-well assay plate containing 97 μL of RPMI using an Echo 555 acoustic liquid handler (Labcyte). LPS and IFNγ was prepared in RPMI to a 10× of final conc. (1000 ng/mL), final concentration is 100 ng/mL.
Human whole blood was drawn in sodium heparin coated tubes from healthy internal donors. 240 μL of blood was transferred to each of the wells of a v-bottom 96 well plate. 30 μL of a compound was transferred from intermediate dilution plate, and incubated for 15 min. 30 μL of the LPS and IFNγ solution prepared above was then transferred to a blood sample and mixed thoroughly. Plate was covered with breathable membrane and incubated at 37° C. for overnight (18 h).
On day 2 isotope labeled standard of kynurenine and tryptophan was made in water at 10× concentration and 30 μL was added to the blood sample at 3 μM final concentration. […] 20 μL of supernatant was carefully transferred to a 384 well plate contain 40 μL of 0.1% formic acid in water and analyzed by LC/MS/MS.
LC/MS/MS analyses were performed using Thermo Fisher's LX4-TSQ Quantum Ultra system. […] Compounds were titrated and IC50 values were calculated by 4 parameter sigmoidal curve fitting formula.

The target in a further experiment is T1, SGK2 (Homo sapiens, UniProt Q9HBY8).
T1 sequence (Q9HBY8 1-367): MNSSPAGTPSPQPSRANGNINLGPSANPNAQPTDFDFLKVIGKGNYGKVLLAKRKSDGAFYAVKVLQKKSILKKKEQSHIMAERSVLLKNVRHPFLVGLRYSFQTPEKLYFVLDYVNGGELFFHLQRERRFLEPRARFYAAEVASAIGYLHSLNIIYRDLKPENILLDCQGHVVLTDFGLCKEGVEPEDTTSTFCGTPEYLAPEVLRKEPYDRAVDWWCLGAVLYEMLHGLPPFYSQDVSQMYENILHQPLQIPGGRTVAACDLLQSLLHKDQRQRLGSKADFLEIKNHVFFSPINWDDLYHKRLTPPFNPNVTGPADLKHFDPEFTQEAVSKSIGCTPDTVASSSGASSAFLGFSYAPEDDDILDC
Put plainly: Off-target kinase panel, ZLYTE: SGK2. Format: biochemical. As to conditions: read-out: Estimated IC50 (uM) SGK2.
From the text: as §1, §2, §3, §4, §5

The next experiment deals with MELK (Homo sapiens, UniProt Q14680). The experiment in a line: Off-target kinase panel, ZLYTE: MELK. Format: biochemical. As to conditions: read-out: Estimated IC50 (uM) MELK.
Sequence of MELK (Q14680 whole entry): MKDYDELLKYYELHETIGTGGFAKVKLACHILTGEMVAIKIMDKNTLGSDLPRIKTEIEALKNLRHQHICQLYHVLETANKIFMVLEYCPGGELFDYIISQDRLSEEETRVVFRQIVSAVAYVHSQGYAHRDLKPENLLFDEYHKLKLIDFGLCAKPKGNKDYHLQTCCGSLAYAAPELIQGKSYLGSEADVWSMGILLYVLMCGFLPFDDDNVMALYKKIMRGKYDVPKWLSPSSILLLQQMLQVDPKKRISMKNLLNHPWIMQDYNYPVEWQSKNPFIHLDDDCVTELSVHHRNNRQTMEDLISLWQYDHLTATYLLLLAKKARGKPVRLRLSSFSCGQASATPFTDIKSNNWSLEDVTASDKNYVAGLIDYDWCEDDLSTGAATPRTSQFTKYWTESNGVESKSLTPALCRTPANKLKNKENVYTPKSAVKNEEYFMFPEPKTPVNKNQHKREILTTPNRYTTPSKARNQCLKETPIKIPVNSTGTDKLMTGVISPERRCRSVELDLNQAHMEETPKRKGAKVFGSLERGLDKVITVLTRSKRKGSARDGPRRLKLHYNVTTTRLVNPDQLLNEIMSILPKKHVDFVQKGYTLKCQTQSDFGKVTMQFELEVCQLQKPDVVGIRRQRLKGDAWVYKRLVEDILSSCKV
From the text: as §1, §2, §3, §4, §5

This is an account of results in US20220396577A1, “NOVEL SUBSTITUTED 1,3-8-TRIAZASPIRO[4,5] DECANE-2,4-DIONE COMPOUNDS AS INDOLEAMINE 2,3-DIOXYGENASE (IDO) AND/OR TRYPTOPHAN 2,3-DIOXYGENASE (TDO) INHIBITORS” (Merck Sharp & Dohme LLC, priority 2019, published 2022).

Where only a bound is given, the exact number is not on record here.

Sequence of IDO1 (P14902 whole entry): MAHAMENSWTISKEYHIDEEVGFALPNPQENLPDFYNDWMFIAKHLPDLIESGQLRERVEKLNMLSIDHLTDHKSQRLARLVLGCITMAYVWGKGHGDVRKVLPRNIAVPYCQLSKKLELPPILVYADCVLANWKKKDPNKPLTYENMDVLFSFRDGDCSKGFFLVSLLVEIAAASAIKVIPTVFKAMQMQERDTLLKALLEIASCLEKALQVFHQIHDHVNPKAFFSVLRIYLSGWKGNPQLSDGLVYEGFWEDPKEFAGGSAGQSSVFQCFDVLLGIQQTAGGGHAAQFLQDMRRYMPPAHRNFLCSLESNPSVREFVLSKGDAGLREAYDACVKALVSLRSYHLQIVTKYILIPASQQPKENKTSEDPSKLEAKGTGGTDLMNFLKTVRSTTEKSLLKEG
Sequence of CLK2 (P49760 whole entry): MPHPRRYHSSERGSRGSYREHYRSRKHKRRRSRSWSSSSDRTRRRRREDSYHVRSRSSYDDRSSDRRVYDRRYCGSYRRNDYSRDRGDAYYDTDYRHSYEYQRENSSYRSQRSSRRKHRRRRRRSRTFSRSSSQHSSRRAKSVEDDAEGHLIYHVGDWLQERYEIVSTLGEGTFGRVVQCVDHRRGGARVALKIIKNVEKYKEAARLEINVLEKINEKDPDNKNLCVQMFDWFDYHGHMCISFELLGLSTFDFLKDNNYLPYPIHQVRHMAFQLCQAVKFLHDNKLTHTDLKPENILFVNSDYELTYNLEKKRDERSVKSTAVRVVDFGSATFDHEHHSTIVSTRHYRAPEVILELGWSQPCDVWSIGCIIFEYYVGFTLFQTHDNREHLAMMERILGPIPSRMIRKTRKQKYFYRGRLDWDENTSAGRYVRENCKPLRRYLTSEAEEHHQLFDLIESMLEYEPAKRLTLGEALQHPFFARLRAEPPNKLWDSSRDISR

As for `C[C@@H]1CN(c2cc(Br)cc3[nH]ncc23)CC[C@]12NC(=O)NC2=O` (single isomer, unassigned) [Compound 1-1], the IC50 (usually the concentration that inhibits the measured activity by half) was 0.73 µM on CLK2; more than 2 µM at TYK2; 345 nM on IDO1; more than 2 µM on SGK2; more than 2 µM on MELK.
In the case of `O=C1NC(=O)C2(CCN(c3cc(Cl)cc4[nH]ncc34)CC2)N1` [CC-1], the IC50 is 0.35 µM at CLK2; 2 µM at TYK2; 556 nM on IDO1; 1.3 µM at SGK2; 1.4 µM on MELK.
